Assay results as given in PMC8944975, “Secretin Receptor as a Target in Gastrointestinal Cancer: Expression Analysis and Ligand Development” (Biomedicines, 2022).
Where a SMILES comes first, the peptide text is derived from it. Where no end group is shown, it is not given here. [ ]: non-standard residue; d: D form.

How the values were obtained:
human SCTR [1] = biological target: T1, human SCTR (Homo sapiens, UniProt P47872); experiment: GloSensor cAMP assay, agonist mode; assay type: cell-based; parameters: expressed in transfected cells; conditions: for Emax: GloSensor cAMP assay, at least 3 independent experiments in duplicates, read-out: cAMP Production, Intrinsic Activity; for EC50: Supplementary Table S2, GloSensor system, at least three independent experiments in duplicates, decimal comma, read-out: cAMP agonism potency
Procedure: Analysis of downstream signaling of activated SCTR via Gαs G-protein subunits was performed by monitoring intracellular cAMP utilizing the GloSensor system (Promega, Walldorf, Germany) in accordance with the supplier protocol. Measurements were performed using the EnVision Analyzer (PerkinElmer, Rodgau, Germany). For evaluation, concentration–response curves (signal-to-noise ratios plotted) employing the derived statistical mean and SD for estimation of the respective EC50 were calculated using Spotfire Decision Site (TIBCO, Palo Alto, CA, USA). For the analysis of antagonists, a modified protocol was used. Treatment of cells and dilution of the potential antagonist was performed as previously described. Ligand dilutions were added to cells and incubated at room temperature for 5 min. Successively, secretin was added at a final concentration of 0.5 nM for an additional 15 min at room temperature. The emitted chemiluminescence, which correlates with the cAMP concentration, was detected with suitable filters. Evaluation of data was performed as previously described with a calculation of half-maximal inhibitory concentration (IC50).

human SCTR [2] = biological target: T1, human SCTR; experiment: β-arr2-GFP translocation assay run in antagonist mode; assay type: cell-based; parameters: expressed in transfected cells; host or cells: U2OS (human osteosarcoma), stably co-transfected with β-arrestin2-GFP; conditions: read-out: IC50, inhibition of β-arr2-GFP translocation (Table 3); note: peptide 5 min at 37 °C
Excerpt: U2OS-SCTR/β-arr2-GFP: human osteosarcoma cell line U2OS (purchased from ATCC/LGC Standards, Wesel, Germany) were stably transfected with plasmids encoding SCTR (Homo sapiens) and the fusion protein β-arrestin2-green fluorescent protein (GFP) (Rattus norvegicus-Aequorea victoria) (β-arr2-GFP).
For analysis of antagonistic effects on SCTR, a slightly modified protocol of the β-arr2-GFP translocation was used. […] For analysis, cells were terminally fixed and permeabilized as previously described. The additional monitoring of IDCC fluorescence in the near-infrared channel (667 nm) provided another measure for receptor binding and activation.

T1 sequence (P47872 23-440): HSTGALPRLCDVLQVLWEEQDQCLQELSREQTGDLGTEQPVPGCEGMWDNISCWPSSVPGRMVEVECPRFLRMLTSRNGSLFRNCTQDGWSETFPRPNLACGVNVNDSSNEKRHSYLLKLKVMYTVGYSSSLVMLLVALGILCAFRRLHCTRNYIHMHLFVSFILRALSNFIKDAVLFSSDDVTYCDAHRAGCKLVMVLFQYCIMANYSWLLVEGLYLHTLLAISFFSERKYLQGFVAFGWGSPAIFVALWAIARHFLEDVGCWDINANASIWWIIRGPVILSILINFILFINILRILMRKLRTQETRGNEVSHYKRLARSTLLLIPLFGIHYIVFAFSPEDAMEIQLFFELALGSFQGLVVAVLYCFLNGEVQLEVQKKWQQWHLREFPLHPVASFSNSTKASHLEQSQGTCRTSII

| Compound | Emax (human SCTR [1]) | EC50 (human SCTR [1]) | also measured |
| --- | --- | --- | --- |
| CC(C)C[C@H](NC(=O)CNC(=O)[C@H](CCC(N)=O)NC(=O)[C@H](CC(C)C)NC(=O)[C@H](CC(C)C)NC(=O)[C@H](CCCNC(=N)N)NC(=O)[C@H](CCC(N)=O)NC(=O)[C@H](CC(C)C)NC(=O)[C@H](CCCNC(=N)N)NC(=O)[C@H](C)NC(=O)[C@H](C)NC(=O)[C@H](CCC(=O)O)NC(=O)[C@H](CCCNC(=N)N)NC(=O)[C@H](CC(C)C)NC(=O)[C@H](CCCNC(=N)N)NC(=O)[C@H](CO)NC(=O)[C@H](CC(C)C)NC(=O)[C@H](CCC(=O)O)NC(=O)[C@H](CO)NC(=O)[C@@H](NC(=O)[C@H](Cc1ccccc1)NC(=O)[C@H](N)CCCNC(=N)N)[C@@H](C)O)C(=O)N[C@H](C(=O)O)C(C)C [Peptide 136] | 33.6 ± 0.9% | – | – |
| CC(C)C[C@H](NC(=O)CNC(=O)[C@H](CCC(N)=O)NC(=O)[C@H](CC(C)C)NC(=O)[C@H](CC(C)C)NC(=O)[C@H](C)NC(=O)[C@H](CCC(N)=O)NC(=O)[C@H](CC(C)C)NC(=O)[C@H](CCCNC(=N)N)NC(=O)[C@H](C)NC(=O)CNC(=O)[C@H](CCC(=O)O)NC(=O)[C@H](CCCNC(=N)N)NC(=O)[C@H](CC(C)C)NC(=O)[C@H](CCCNC(=N)N)NC(=O)[C@H](CO)NC(=O)[C@H](CC(C)C)NC(=O)[C@H](CCC(=O)O)NC(=O)[C@H](CO)NC(=O)[C@@H](NC(=O)[C@H](Cc1ccccc1)NC(=O)[C@H](N)CCCNC(=N)N)[C@@H](C)O)C(=O)N[C@H](C(=O)O)C(C)C [Peptide 140] (H-[dR]FTSELSRLREGARLQALLQGLV-OH) | – | – | IC50 (human SCTR [2]): 1490 ± 218 nM |
| HSDGTFTSELSRLREGARLQ [Peptide 103] | – | 875 nM | – |
| HSDGTFTSELSRLREGARLQR [Peptide 102] | – | 586 nM | – |
| HSDGTFTSELSRLREGARLQRL [Peptide 101] | – | 57 nM | – |

Second part, led by results:

| Emax (human SCTR [1]) | EC50 (human SCTR [1]) | Compound | also measured |
| --- | --- | --- | --- |
| 27.5 ± 8.8% | – | CC(C)C[C@H](NC(=O)CNC(=O)[C@H](C)NC(=O)[C@H](CC(C)C)NC(=O)[C@H](CC(C)C)NC(=O)[C@H](CCCNC(=N)N)NC(=O)[C@H](CCC(N)=O)NC(=O)[C@H](CC(C)C)NC(=O)[C@H](CCCNC(=N)N)NC(=O)[C@H](C)NC(=O)CNC(=O)[C@H](CCC(=O)O)NC(=O)[C@H](CCCNC(=N)N)NC(=O)[C@H](CC(C)C)NC(=O)[C@H](CCCNC(=N)N)NC(=O)[C@H](CO)NC(=O)[C@H](CC(C)C)NC(=O)[C@H](CCC(=O)O)NC(=O)[C@H](CO)NC(=O)[C@@H](NC(=O)[C@H](Cc1ccccc1)NC(=O)[C@H](N)CCCNC(=N)N)[C@@H](C)O)C(=O)N[C@H](C(=O)O)C(C)C [Peptide 143] | – |
| 31.1 ± 2.2% | – | CC(C)C[C@H](NC(=O)[C@H](C)NC(=O)[C@H](CCC(N)=O)NC(=O)[C@H](CC(C)C)NC(=O)[C@H](CC(C)C)NC(=O)[C@H](CCCNC(=N)N)NC(=O)[C@H](CCC(N)=O)NC(=O)[C@H](CC(C)C)NC(=O)[C@H](CCCNC(=N)N)NC(=O)[C@H](C)NC(=O)CNC(=O)[C@H](CCC(=O)O)NC(=O)[C@H](CCCNC(=N)N)NC(=O)[C@H](CC(C)C)NC(=O)[C@H](CCCNC(=N)N)NC(=O)[C@H](CO)NC(=O)[C@H](CC(C)C)NC(=O)[C@H](CCC(=O)O)NC(=O)[C@H](CO)NC(=O)[C@@H](NC(=O)[C@H](Cc1ccccc1)NC(=O)[C@H](N)CCCNC(=N)N)[C@@H](C)O)C(=O)N[C@H](C(=O)O)C(C)C [Peptide 144] | – |
